Data as given in PubChem BioAssay AID248 (DTP/NCI, 2004).
Where “and” joins values, the source holds several entries; their conditions need not be identical. Equal values may be shown once. Toxic doses and inconclusive results are not listed.

Test system: L1210 leukemia ip in BDF1 mice, survival T/C
Test: NCI In Vivo Anticancer Drug Screen. Data for tumor model L1210 Leukemia (intraperitoneal) in B6D2F1 (BDF1) mice
Details: endpoint: mean survival time, higher = longer survival
Method in brief: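 Tumor cells were implanted, animals were treated, and survival was followed. The result divides the treated measurement by the vehicle-control measurement.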

[1] = dose: 75.0 mg/kg/injection, schedule: Q01DX001 (ip), vehicle: carboxymethylcellulose (CMC)
[2] = dose: 100.0 mg/kg/injection, schedule: Q01DX001 (ip), vehicle: carboxymethylcellulose (CMC)
[3] = dose: 200.0 mg/kg/injection, schedule: Q01DX001 (ip), vehicle: carboxymethylcellulose (CMC)
[4] = dose: 400.0 mg/kg/injection, schedule: Q01DX001 (ip), vehicle: carboxymethylcellulose (CMC)

O=C(Nc1ccc(C2=NCCN2)cc1)c1ccc(C(=O)Nc2ccc(C3=NCCN3)cc2)c([N+](=O)[O-])c1
T/C (dose: 1.0 mg/kg/injection, schedule: Q#A X Z (ip), vehicle: saline): 103 % of control
T/C (dose: 2.0 mg/kg/injection, schedule: Q01DX Z (ip), vehicle: saline): 112 % of control
T/C (dose: 2.5 mg/kg/injection, schedule: Q## X000 (iv), vehicle: other): 97 % of control
T/C (dose: 3.6 mg/kg/injection, schedule: Q01DX Z (ip), vehicle: methylcellulose (MC)): 163 % of control
T/C (dose: 4.0 mg/kg/injection, schedule: Q01DX Z (ip), vehicle: saline): 116 % of control
T/C (dose: 4.0 mg/kg/injection, schedule: Q#A X Z (ip), vehicle: saline): 184 % of control
T/C (dose: 5.0 mg/kg/injection, schedule: Q## X000 (iv), vehicle: other): 96 % of control
T/C (dose: 5.4 mg/kg/injection, schedule: Q01DX Z (ip), vehicle: methylcellulose (MC)): 195 % of control
T/C (dose: 6.0 mg/kg/injection, schedule: Q01DX004 (im), vehicle: olive oil, sesame oil, peanut oil): 97 % of control
T/C (dose: 6.0 mg/kg/injection, schedule: Q03DX Z (ip), vehicle: saline): 115 % of control
T/C (dose: 8.0 mg/kg/injection, schedule: Q01DX004 (im), vehicle: olive oil, sesame oil, peanut oil): 98 % of control
T/C (dose: 8.0 mg/kg/injection, schedule: Q01DX Z (ip), vehicle: methylcellulose (MC)): 246 % of control
T/C (dose: 8.0 mg/kg/injection, schedule: Q01DX Z (ip), vehicle: saline): 204 % of control
T/C (dose: 10.0 mg/kg/injection, schedule: Q## X000 (iv), vehicle: other): 120 % of control
T/C (dose: 12.0 mg/kg/injection, schedule: Q01DX004 (im), vehicle: olive oil, sesame oil, peanut oil): 101 % of control
T/C (dose: 12.0 mg/kg/injection, schedule: Q01DX Z (ip), vehicle: methylcellulose (MC)): 204 % of control
T/C (dose: 12.0 mg/kg/injection, schedule: Q03DX Z (ip), vehicle: saline): 123 % of control
T/C (dose: 16.0 mg/kg/injection, schedule: Q01DX009 (ip), vehicle: saline): 188 % of control and 198 % of control
T/C (dose: 18.0 mg/kg/injection, schedule: Q01DX004 (im), vehicle: olive oil, sesame oil, peanut oil): 104 % of control
T/C (dose: 24.0 mg/kg/injection, schedule: Q03DX Z (ip), vehicle: saline): 188 % of control
T/C (dose: 28.0 mg/kg/injection, schedule: Q07DX Z (ip), vehicle: saline): 113 % of control
T/C (dose: 32.0 mg/kg/injection, schedule: Q01DX009 (ip), vehicle: saline): 100 % of control and 103 % of control
T/C (dose: 32.0 mg/kg/injection, schedule: Q01DX Z (ip), vehicle: saline): 86 % of control
T/C (dose: 48.0 mg/kg/injection, schedule: Q03DX Z (ip), vehicle: saline): 172 % of control
T/C (dose: 64.0 mg/kg/injection, schedule: Q01DX Z (sc), vehicle: steriod suspending solution): 159 % of control
T/C (dose: 96.0 mg/kg/injection, schedule: Q03DX Z (ip), vehicle: saline): 100 % of control
T/C (dose: 125.0 mg/kg/injection, schedule: Q01DX Z (sc), vehicle: steriod suspending solution): 122 % of control
T/C (dose: 240.0 mg/kg/injection, schedule: Q01DX Z (oral), vehicle: saline): 101 % of control

O/N=C/c1c(I)cc(I)c(O)c1I
T/C (dose: 100.0 mg/kg/injection, schedule: Q01DX009 (ip), vehicle: Klucel (hydroxypropylcellulose) (HPC)): 101 % of control
T/C (dose: 200.0 mg/kg/injection, schedule: Q01DX009 (ip), vehicle: Klucel (hydroxypropylcellulose) (HPC)): 106 % of control
T/C (dose: 400.0 mg/kg/injection, schedule: Q01DX009 (ip), vehicle: Klucel (hydroxypropylcellulose) (HPC)): 90 % of control

CCC(COC(=O)c1ccc(N)cc1)NC(CC(C)C)CC(C)C (centres undefined)
T/C [1]: 89 % of control
T/C (dose: 300.0 mg/kg/injection, schedule: Q01DX001 (ip), vehicle: carboxymethylcellulose (CMC)): 91 % of control

CCCCCCCCNCCOC(=O)c1ccc(N(CC)CC)cc1
T/C [1]: 91 % of control
T/C (dose: 150.0 mg/kg/injection, schedule: Q01DX001 (ip), vehicle: carboxymethylcellulose (CMC)): 97 % of control

CCCCCn1cnc2c(=S)nc[nH]c21
T/C (dose: 50.0 mg/kg/injection, schedule: Q01DX001 (ip), vehicle: carboxymethylcellulose (CMC)): 92 % of control
T/C [2]: 92 % of control
T/C (dose: 100.0 mg/kg/injection, schedule: Q01DX009 (ip), vehicle: acetone): 93 % of control
T/C (dose: 100.0 mg/kg/injection, schedule: Q04DX003 (ip), vehicle: saline): 92 % of control
T/C [3]: 97 % of control
T/C (dose: 200.0 mg/kg/injection, schedule: Q01DX009 (ip), vehicle: acetone): 95 % of control
T/C (dose: 200.0 mg/kg/injection, schedule: Q04DX003 (ip), vehicle: saline): 100 % of control
T/C [4]: 90 % of control
T/C (dose: 400.0 mg/kg/injection, schedule: Q01DX009 (ip), vehicle: acetone): 93 % of control
T/C (dose: 400.0 mg/kg/injection, schedule: Q04DX003 (ip), vehicle: saline): 103 % of control

Cc1c([N+](=O)[O-])cc(C(C)(C)C)c(OC(=O)c2ccccc2)c1[N+](=O)[O-]
T/C (dose: 100.0 mg/kg/injection, schedule: Q04DX002 (ip), vehicle: saline with Tween-80): 123 % of control
T/C (dose: 200.0 mg/kg/injection, schedule: Q04DX002 (ip), vehicle: saline with Tween-80): 116 % of control

CCOC(=O)/C(C)=N\N=C(/CCOC)COC
T/C (dose: 50.0 mg/kg/injection, schedule: Q01DX001 (ip), vehicle: saline): 101 % of control
T/C (dose: 50.0 mg/kg/injection, schedule: Q01DX009 (ip), vehicle: carboxymethylcellulose (CMC)): 117 % of control
T/C (dose: 100.0 mg/kg/injection, schedule: Q01DX001 (ip), vehicle: saline): 101 % of control
T/C (dose: 200.0 mg/kg/injection, schedule: Q01DX001 (ip), vehicle: saline): 101 % of control
T/C (dose: 400.0 mg/kg/injection, schedule: Q01DX001 (ip), vehicle: saline): 95 % of control
T/C (dose: 400.0 mg/kg/injection, schedule: Q01DX009 (ip), vehicle: carboxymethylcellulose (CMC)): 94 % of control

CCOC(=O)C(C(C)=O)C(c1ccccc1)C(C(C)=O)C(=O)OCC (centres undefined)
T/C (dose: 25.6 mg/kg/injection, schedule: Q04DX002 (ip), vehicle: saline with Tween-80): 97 % of control
T/C (dose: 64.0 mg/kg/injection, schedule: Q04DX002 (ip), vehicle: saline with Tween-80): 104 % of control
T/C (dose: 100.0 mg/kg/injection, schedule: Q04DX003 (ip), vehicle: saline with Tween-80): 101 % of control
T/C (dose: 160.0 mg/kg/injection, schedule: Q04DX002 (ip), vehicle: saline with Tween-80): 112 % of control
T/C (dose: 200.0 mg/kg/injection, schedule: Q04DX003 (ip), vehicle: saline with Tween-80): 98 % of control
T/C (dose: 400.0 mg/kg/injection, schedule: Q04DX002 (ip), vehicle: saline with Tween-80): 104 % of control
T/C (dose: 400.0 mg/kg/injection, schedule: Q04DX003 (ip), vehicle: saline with Tween-80): 93 % of control

CCCCCCCCCCCCC(=O)N1CCCCC1
T/C (dose: 100.0 mg/kg/injection, schedule: Q04DX002 (ip), vehicle: saline): 91 % of control
T/C (dose: 200.0 mg/kg/injection, schedule: Q04DX002 (ip), vehicle: saline): 102 % of control

CC1(C)OC(COS(C)(=O)=O)C2OC(C)(C)OC(COS(C)(=O)=O)C2O1 (centres undefined)
T/C [2]: 104 % of control
T/C [3]: 101 % of control
T/C [4]: 104 % of control

CSc1nc(N)c(C#N)cc1C#N
T/C (dose: 100.0 mg/kg/injection, schedule: Q01DX009 (ip), vehicle: saline with Tween-80): 88 % of control
T/C (dose: 200.0 mg/kg/injection, schedule: Q01DX009 (ip), vehicle: saline with Tween-80): 88 % of control
T/C (dose: 400.0 mg/kg/injection, schedule: Q01DX009 (ip), vehicle: saline with Tween-80): 88 % of control

O=C(O)C[As](=O)(O)O
T/C (dose: 30.0 mg/kg/injection, schedule: Q01DX009 (ip), vehicle: saline): 90 % of control
T/C (dose: 60.0 mg/kg/injection, schedule: Q01DX009 (ip), vehicle: saline): 97 % of control

O=CNC1CCCCC1
T/C (dose: 20.0 mg/kg/injection, schedule: Q01DX009 (ip), vehicle: saline with Tween-80): 93 % of control
T/C (dose: 40.0 mg/kg/injection, schedule: Q01DX001 (ip), vehicle: saline with Tween-80): 100 % of control
T/C (dose: 40.0 mg/kg/injection, schedule: Q01DX009 (ip), vehicle: saline with Tween-80): 93 % of control
T/C (dose: 80.0 mg/kg/injection, schedule: Q01DX001 (ip), vehicle: saline with Tween-80): 100 % of control
T/C (dose: 80.0 mg/kg/injection, schedule: Q01DX009 (ip), vehicle: saline with Tween-80): 91 % of control

CCOC(=O)NCCCCN(C(C)=O)n1cnc2c(SC)ncnc21
T/C (dose: 12.5 mg/kg/injection, schedule: Q04DX002 (ip), vehicle: saline with Tween-80): 100 % of control
T/C (dose: 25.0 mg/kg/injection, schedule: Q04DX002 (ip), vehicle: saline with Tween-80): 94 % of control
T/C (dose: 50.0 mg/kg/injection, schedule: Q04DX002 (ip), vehicle: saline with Tween-80): 97 % of control

CNC(=S)N/N=C(\C=N\NC(=S)NC)c1ccccc1
T/C (dose: 50.0 micrograms/kg/injection, schedule: Q01DX009 (ip), vehicle: carboxymethylcellulose (CMC)): 88 % of control
